# Results: US20070077283A1, “METHOD OF ENHANCING TRANSMUCOSAL DELIVERY OF THERAPEUTIC COMPOUNDS” (Nastech Pharmaceutical Company Inc., priority 2005, published 2007)
# Legend:
# [1] = system: human-derived tracheal/bronchial epithelial cells (EpiAirway Tissue Model); test: Transepithelial electrical resistance (TER) of an epithelial cell monolayer; type: cell-based; details: for activity at 1000 µM: Homo sapiens, Epithelial cell, 1 h, read-out: Mean % of Original TER Value
# Method: Inserts are feed for each day of recovery. TER measurements were accomplished using the Endohm-12 Tissue Resistance Measurement Chamber connected to the EVOM Epithelial Voltohmmeter (World Precision Instruments, Sarasota, Fla.) with the electrode leads. The electrodes and a tissue culture blank insert were equilibrated for at least 20 minutes in MatTek medium with the power off prior to checking calibration. The background resistance was measured with 1.5 ml media in the Endohm tissue chamber and 300 μl media in the blank insert. The top electrode was adjusted so that it was close to, but not making contact with, the top surface of the insert membrane. Background resistance of the blank insert was about 5-20 ohms. […] TER values are a function of the surface area of the tissue. […] By this method of calculation, TER will be expressed as both Ohms*cm2 and percent original TER value. […] Several different lipid types (see Table 1) were screened to select for lipids that are capable of enhancing the permeation of a biological agent across an epithelial cell monolayer. […] A reduction in TER correlates with the ability to enhance the permeation of a molecule and biological agent across an epithelia.
# [2] = system: human-derived tracheal/bronchial epithelial cells (EpiAirway Tissue Model); test: Cell viability (MTT assay); type: cell-based; details: compared with PBS negative control (Example 5)
# Method: Cell viability will be assessed using the MTT assay (MTT-100, MatTek kit). This kit measures the uptake and transformation of tetrazolium salt to formazan dye. Thawed and diluted MTT concentrate is prepared 1 hour prior to the end of the dosing period with the lipid by mixing 2 mL of MTT concentrate with 8 mL of MTT diluent. Each cell culture insert is washed twice with PBS containing Ca^+2 and Mg^+2 and then transferred to a new 96-well transport plate containing 100 μL of the mixed MTT solution per well. This 96-well transport plate is then incubated for three hours at 37° C. and 5% CO2. After the three hour incubation, the MTT solution is removed and the cultures are transferred to a second 96-well feeder tray containing 250 μL MTT extractant solution per well. An additional 150 μL of MTT extractan solution was added to the surface of each culture well and the samples sat at room temperature in the dark for a minimum of two hours and maximum of 24 hours. The insert membrane was then pierced with a pipet tip and the solutions in the upper and lower wells were allowed to mix. Two hundred microliters of the mixed extracted solution along with extracted blanks (negative control) was transferred to a 96-well plate for measurement with a microplate reader. The optical density (OD) of the samples was measured at 570 nm with the background subtraction at 650 nm on a plate reader. Cell viability was expressed as a percentage and calculated by dividing the OD readings for treated inserts by the OD readings for the PBS treated inserts and multiplying by 100. For the purposes of this assay, it was assumed that PBS had no effect on cell viability and therefore represented 100% cell viability.
# [3] = system: human-derived tracheal/bronchial epithelial cells (EpiAirway Tissue Model); test: in vitro
# Method: Normal, human-derived tracheal/bronchial epithelial cells will serve as the model cell system for assessing the lipids listed in Table 1. The cells are supplied by MatTek Corp. (Ashland, Mass.) as the EpiAirway™ Tissue Model. The cells are provided as a confluent monolayer on a Millipore Milicell-CM cell culture insert with a pore size of 0.4 μM, inner diameter of 0.8 cm and surface area of 0.6 cm^2 and comprised of transparent hydrophilic Teflon (PTFE). Upon receipt, the membranes are cultured in 1 ml basal media (phenol red-free and hydrocortisone-free Dulbecco's Modified Eagle's Media (DMEM) at 37° C./5% CO2 for 24-48 hours before use. Inserts are feed for each day of recovery.
# The amount of cell death was assayed by measuring the loss of lactate dehydrogenase (LDH) from the cells using a CytoTox 96 Cytotoxicity Assay Kit (Promega Corp., Madison, Wis.). A treatment of 1% Octylphenolpoly(ethyleneglycolether)x (Triton X-100™) diluted in PBS was used as a lysis control. One percent Triton X-100™ mediated cell lysis was normalized to 100%. For basal-lateral LDH levels, triplicates of 50 μl of the basal media were loaded into a 96-well assay plate. For apical LDH levels, 150 μl of Epi-Cm was added to the apical side of each chamber and mixed by pipeting. One hundred and fifty microliters was then removed and diluted 2-fold prior to performing the LDH assay. All apical LDH assay were performed in triplicate and with 50 μl of the diluted test solution. Fresh, cell-free culture medium will be used as a blank. Total LDH levels were determined by lysing cells in a final concentration of 0.9% Triton-X100™. Fifty microliters of substrate solution was added to each well and the plates incubated for 30 minutes at room temperature in the dark. Following incubation, 50 μl of stop solution was added to each well and the plates read on an optical density plate reader at […]. Cytotoxicity was expressed as a percentage calculated by subtracting the average absorbance of the PBS control wells as the endogenously released LDH level and expressing that value relative to the average Triton-X100 control, which represents total LDH content. [formula] Osmolality
# For the instant application, phosphate buffered saline (PBS) served as a negative control for both the TER assay and LDH (cytotoxicity) assay. […] TER measurements and LDH levels were taken immediately after a one hour treatment of the cultured cells with each lipid, unless specified otherwrise.
# TER reduction was expressed as the percent decrease in TER value from time zero to one hour post-treatment. Thus, greater percent reduction in TER represents less electrical resistance across the epithelial cell monolayer and consequently greater epithelial cell permeation. Cytotoxicity (LDH levels) for each lipid was expressed as a percent of the LDH levels measured after Triton-X100 treatment of the cells. Triton-X100™ LDH levels were normalized to 100%.
# [4] = system: human-derived tracheal/bronchial epithelial cells (EpiAirway Tissue Model); test: FITC-Dextran permeation assay across epithelial cell monolayer; type: cell-based; details: for Mean % FD3 Permeation: FITC-dextran 3000 (Table 4); for permeation of FD3 relative to negative controls: text summary of Table 4
# Method: Each tissue insert was placed in an individual well containing 1 ml of MatTek basal media. On the apical surface of the inserts, 20 μl of test formulation was applied according to study design, and the samples were placed on a shaker (˜100 rpm) for 1.5 hours at 37° C. FITC-labeled dextran solution was added to inserts apically and a fluorescence measurement was taken from the basolateral media after the incubation period. Two hundred microliters of the basal media for each test formulation was transferred to a dark-wall fluorescent reading plate. Each test formulation was tested in triplicate. Fluorescent intensity was measured at 470 nM with the microplate fluorescence reader FLx800 (Bio-Tek Instruments, Inc., Winooski, Vt.). A FITC labeled dextran with a molecular weight of 3 kDA, 10 kDA, 20 kDA, 40 kDA, 70 kDA and/or 500 kDA was used to assess the ability of individual lipids to deliver a model protein across an epithelia.
# Permeation is expressed as percent permeation and was calculated as follows: [formula] [formula] Terms
# PBS and 0.3% Triton-X100™ served as […]. […] FD permeation was presented as the percent of FD that crossed from the apical side of the epithelial cell monolayer to the basolateral cell surface.
# [5] = lipid 1000 μM, percent decrease in TER from time zero
# [6] = lipid 1000 μM, lower value = greater TER reduction (Table 4)
SMILES,"Mean TER Reduction 1 hr. Post-treatment [1, 5] [%]",MTT levels (cell viability) [2],"LDH levels ([3]; human, 1 h)","Cytotoxic Effect (LDH) 1 hr. Post-treatments ([3]; human, 1 h, 1000 μM) [%]",Mean TER Reduction 1 hr. Post-treatment ([1]; lipid 500 μM) [%],"Cytotoxic Effect (LDH) 1 hr. Post-treatments ([3]; human, 1 h, 500 μM) [%]","activity at 1000 µM [1, 6] [%]","Mean % Relative Cytotoxic Effect (LDH) ([3]; human, 1 h, 1000 μM) [%]",Mean % FD3 Permeation ([4]; lipid 1000 μM) [%],permeation of FD3 relative to negative controls [4],also measured
"CCCCCCCCCCCCCCCC(=O)OC[C@H](COP(=O)([O-])OCC[N+](C)(C)C)OC(=O)CCCCCCCC=O [16:0-09:0(ALDO)PC, 1-Palmitoyl-2-(9′-oxo-Nonanoyl)-sn-Glycero-3-Phosphocholine]",81,MTT levels comparable to that of the PBS negative control,below 30%,10,–,–,–,–,–,–,% FITC-Dextran Permeation FD3 ([4]; lipid 1000 μM (Table 5)): 0%
"CCCCCCCCCCCCCCCC(=O)OC[C@H](COP(=O)([O-])OCC[N+](C)(C)C)OC(=O)CCCCCCCC(=O)O [16:0-09:0(COOH)PC, 1-Palmitoyl-2-Azelaoyl-sn-Glycero-3-Phosphocholine]",–,MTT levels comparable to that of the PBS negative control,below 30%,–,92,9,–,–,–,–,% FITC-Dextran Permeation FD3 ([4]; lipid 500 μM (Table 5)): 3%
"CCCCCCCCCCCCCCCCOC[C@H](COP(=O)([O-])OCC[N+](C)(C)C)OC(=O)CCC [C16-04:0 PC, 1-O-Hexadecyl-2-Butyroyl-sn-Glycero-3-Phosphocholine]",–,–,–,–,–,–,0,22,7,enhanced the permeation of FD3 above that of the negative controls,–
"CCCCCCCCCCCCCCCCOC[C@@H](O)COP(=O)([O-])OCC[N+](C)(C)C [C16 Lyso-PAF, 1-O-Hexadecyl-2-Hydroxy-sn-Glycero-3-Phosphocholine]",–,–,–,–,–,–,14,–,6,enhanced the permeation of FD3 above that of the negative controls,Mean % Relative Cytotoxic Effect (LDH) ([3]; lipid 1000 μM (Table 4)): 26%; % FITC-Dextran Permeation FD10 ([4]; lipid 1000 μM): 6%; % FITC-Dextran Permeation FD40 ([4]; lipid 1000 μM): 2%; % FITC-Dextran Permeation FD3 ([4]; lipid 1000 μM (Table 5)): 8%
"CCCCCCCC/C=C\CCCCCCCC(=O)O[C@H](COCCCCCCCCCCCCCCCC)COP(=O)([O-])OCC[N+](C)(C)C [C16-18:1 PC, 1-O-Hexadecyl-2-Oleoyl-sn-Glycero-3-Phosphocholine]",–,–,–,–,–,–,86,−2,0,–,–
"CCCCCCCCCCCCCCCCCCOC[C@H](COP(=O)([O-])OCC[N+](C)(C)C)OC(=O)CCC [C18-04:0 PC, 1-O-Octadecyl-2-Butyroyl-sn-Glycero-3-Phosphocholine]",–,–,–,–,–,–,85,−3,0,–,–
"CCCCCCCCCCCCCCCCCCOC[C@H](COP(=O)([O-])OCC[N+](C)(C)C)OC [18:0-1:0 Diether PC, 1-O-Octadecyl-2-O-Methyl-sn-Glycero-3-Phosphocholine]",99,MTT levels comparable to that of the PBS negative control,–,50,89,26,111,−1,0,–,% FITC-Dextran Permeation FD3 ([4]; lipid 500 μM (Table 5)): 5%
"CCCCCCCCCCCCCCCCOC[C@H](COP(=O)([O-])OCC[N+](C)(C)C)OC(=O)CCCCCCCC(=O)O [Azelaoyl PAF (C16-09:0), 1-O-Hexadecyl-2-Azelaoyl-sn-Glycero-3-Phosphocholine]",95,MTT levels comparable to that of the PBS negative control,below 30%,26,93,16,-5,3,9,enhanced the permeation of FD3 above that of the negative controls,"Mean TER Reduction 1 hr. Post-treatment ([1]; lipid 62.5 μM): 41%; Mean TER Reduction 1 hr. Post-treatment ([1]; lipid 125 μM): 76%; Mean TER Reduction 1 hr. Post-treatment ([1]; lipid 250 μM): 93%; Cytotoxic Effect (LDH) 1 hr. Post-treatments ([3]; human, 1 h, 62.5 μM): 2%; Cytotoxic Effect (LDH) 1 hr. Post-treatments ([3]; human, 1 h, 125 μM): 5%; Cytotoxic Effect (LDH) 1 hr. Post-treatments ([3]; human, 1 h, 250 μM): 10%; % FITC-Dextran Permeation FD3 ([4]; lipid 250 μM (Table 5)): 1%"
"CC/C=C\C/C=C\C/C=C\C/C=C\C/C=C\CCCC(=O)O[C@H](COCCCCCCCCCCCCCCCC)COP(=O)([O-])OCC[N+](C)(C)C [C16-20:5 PC, 1-O-Hexadecyl-2-Eicosapentaenoyl-sn-Glycero-3-Phosphocholine]",–,–,–,–,–,–,–,–,0,–,"Mean % of Original TER Value [1, 6]: 90%; Mean % Relative Cytotoxic Effect (LDH) ([3]; lipid 1000 μM (Table 4)): −1%"
